Laboratory results reported in US11753407B2, “Compounds for treating spinal muscular atrophy” (PTC Therapeutics, Inc., priority 2012, dated 2023).

What was measured:
[1] = system: Smn protein in SMA patient fibroblast cells (GM03813); test: Smn protein assay in cultured cells (SMN HTRF); assay type: cell-based, human; conditions: SMA patient fibroblast cells, 48 hours; for EC1.5x for Smn protein expression: 7-point concentration curve, SMN HTRF, concentration producing 1.5 times Smn protein vs DMSO vehicle control; for maximum fold (Fold) increase of Smn protein: 7-point concentration data, fold relative to vehicle control
Method: The SMN HTRF (homogeneous time resolved fluorescence) assay is used to quantify the level of Smn protein in SMA patient fibroblast cells treated with test compounds.
Protocol. Cells are thawed and cultured in DMEM-10% FBS for 72 hours. Cells are trypsinized, counted and re-suspended to a concentration of 25,000 cells/mL in DMEM-10% FBS. The cell suspension is plated at 5,000 cells per well in a 96 well microtiter plate and incubated for 3 to 5 hours. […] Test compounds are serially diluted 3.16-fold in 100% DMSO to generate a 7-point concentration curve. 1 μL of test compound solution is transferred to cell-containing wells and cells are incubated for 48 hours in a cell culture incubator (37° C., 5% CO2, 100% relative humidity). Triplicate samples are set up for each test compound concentration. After 48 hours, the supernatant is removed from the wells and 25 μL of the RIPA lysis buffer, containing protease inhibitors, is added to the wells and incubated with shaking at room temperature for 1 hour. 25 μL of the diluent is added and then 35 μL of the resulting lysate is transferred to a 384-well plate, where each well contains 5 μL of the antibody solution (1:100 dilution of anti-SMN d2 and anti-SMN kryptate in SMN reconstitution buffer). The plate is centrifuged for 1 minute to bring the solution to the bottom of the wells, then incubated overnight at room temperature. Fluorescence for each well of the plate at 665 nm and 620 nm is measured on an EnVision multilabel plate reader (Perkin-Elmer).
The normalized fluorescence signal is calculated for each sample, Blank and vehicle control well by dividing the signal at 665 nm by the signal at 620 nm. Normalizing the signal accounts for possible fluorescence quenching due to the matrix effect of the lysate. The ΔF value (a measurement of Smn protein abundance as a percent value) for each sample well is calculated by subtracting the normalized average fluorescence for the Blank control wells from the normalized fluorescence for each sample well, then dividing this difference by the normalized average fluorescence for the Blank control wells and multiplying the resulting value by 100. The ΔF value for each sample well represents the Smn protein abundance from test compound-treated samples. The ΔF value for each sample well is divided by the ΔF value for the vehicle control wells to calculate the fold increase in Smn protein abundance relative to the vehicle control.
For compounds of Formula (I) or a form thereof disclosed herein, Table 9 provides the EC1.5× for Smn protein expression that was obtained from the 7-point concentration data generated for each test compound according to the procedure of Biological Example 7. The term “EC1.5× for Smn protein expression” is defined as that concentration of test compound that is effective in producing 1.5 times the amount of Smn protein in an SMA patient fibroblast cell compared to the amount produced from the DMSO vehicle control. An EC1.5× for Smn protein expression between >3 μM and ≤10 μM is indicated by one star (*), an EC1.5× between >1 μM and ≤3 μM is indicated by two stars (**), an EC1.5× between >0.3 μM and ≤1 μM is indicated by three stars (***) and an EC1.5x≤0.3 μM is indicated by four stars (****).
For compounds of Formula (I) or a form thereof disclosed herein, Table 10 provides the maximum fold (Fold) increase of Smn protein that was obtained from the 7-point concentration data generated for each test compound according to the procedure of Biological Example 7. A maximum fold increase of ≤1.2 is indicated by one star (*), a fold increase between >1.2 and ≤1.35 is indicated by two stars (**), a fold increase between >1.35 and ≤1.5 is indicated by three stars (***), a fold increase between >1.5 and ≤1.65 is indicated by four stars (****) and a fold increase >1.65 is indicated by five stars (*****).

[2] = system: SMN2 minigene mRNA (SMN2-A minigene) in HEK293H cells; test: SMN2 minigene mRNA splicing RT-qPCR assay in cultured cells; assay type: cell-based, human; conditions: Homo sapiens, HEK293-H; concentration increasing full length SMN2 mRNA 1.5-fold relative to vehicle-treated cells; HEK293H cells with SMN2-A minigene, 24 hours, 7-point concentration data; read-out: EC1.5x for production of full length SMN2 mRNA
Method: The reverse transcription-quantitative PCR-based (RT-qPCR) assay is used to quantify the level of the full length SMN2 minigene mRNA containing SMN2 exon 7 in a HEK293H cell line stably transfected with said minigene and treated with a test compound.
Protocol. HEK293H cells stably transfected with the SMN2-A minigene construct described above (10,000 cells/well) are seeded in 200 μL of cell culture medium (DMEM plus 10% FBS, with 200 μg/mL hygromycin) in 96-well flat-bottom plates and the plate is immediately swirled to ensure proper dispersal of cells, forming an even monolayer of cells. Cells are allowed to attach for at least 4-6 hours. Test compounds are serially diluted 3.16-fold in 100% DMSO to generate a 7-point concentration curve. A solution of test compound (1 μL, 200× in DMSO) is added to each cell-containing well and the plate is incubated for 24 hours in a cell culture incubator (37° C., 5% CO2, 100% relative humidity). 2 replicates are prepared for each test compound concentration. The cells are then lysed in Cells-To-Ct lysis buffer and the lysate is stored at −80° C.
Primer SMN Forward A (SEQ ID NO. 1) hybridizes to a nucleotide sequence in exon 7 (nucleotide 22 to nucleotide 40), primer SMN Reverse A (SEQ ID NO. 2) hybridizes to a nucleotide sequence in the coding sequence of Firefly luciferase, SMN Probe A (SEQ ID NO. 3) hybridizes to a nucleotide sequence in exon 7 (nucleotide 50 to nucleotide 54) and exon 8 (nucleotide 1 to nucleotide 21). The combination of these three oligonucleotides detects only SMN1 or SMN2 minigenes (RT-qPCR) and will not detect endogenous SMN1 or SMN2 genes.
The SMN forward and reverse primers are used at final concentrations of 0.4 μM. The SMN probe is used at a final concentration of 0.15 μM. The GAPDH primers are used at final concentrations of 0.2 μM and the probe at 0.15 μM.
The SMN2-minigene GAPDH mix (15 μL total volume) is prepared by combining 7.5 μL of 2× RT-PCR buffer, 0.4 μL of 25× RT-PCR enzyme mix, 0.75 μL of 20× GAPDH primer-probe mix, 4.0075 μL of water, 2 μL of 10-fold diluted cell lysate, 0.06 μL of 100 μM SMN forward primer, 0.06 μL of 100 μM SMN reverse primer, and […].
PCR is carried out at the following temperatures for the indicated time: Step 1: 48° C. (15 min); Step 2: 95° C. (10 min); Step 3: 95° C. (15 sec); Step 4: 60° C. (1 min); then repeat Steps 3 and 4 for a total of 40 cycles.
Each reaction mixture contains both SMN2-A minigene and GAPDH primers/probe sets (multiplex design), allowing simultaneous measurement of the levels of two transcripts.
Two SMN spliced products are generated from the SMN2 minigene. The first spliced product containing exon 7, corresponding to full length SMN2 mRNA, is referred to herein using the term “SMN2 minigene FL.” The second spliced product lacking exon 7 is referred to herein using the term “SMN2 minigene Δ7.”
The increase of SMN2 minigene FL mRNA relative to that in cells treated with vehicle control is determined from real-time PCR data using a modified ΔΔCt method (as described in Livak and Schmittgen, Methods, 2001, 25:402-8). The amplification efficiency (E) is calculated from the slope of the amplification curve for SMN2 minigene FL and GAPDH individually. The abundances of SMN2 minigene FL and GAPDH are then calculated as (1+E)^−Ct, where Ct is the threshold value for each amplicon. The abundance of SMN2 minigene FL is normalized to GAPDH abundance. The normalized SMN2 minigene FL abundance from test compound-treated samples is then divided by normalized SMN2 minigene FL abundance from vehicle-treated cells to determine the level of SMN2 FL mRNA relative to vehicle control.
For compounds of Formula (I) or a form thereof disclosed herein, Table 4 provides the […] for production of full length SMN2 mRNA that was obtained from the 7-point concentration data generated for each test compound according to the procedure of Biological Example 2. […]

| Compound | EC1.5x for Smn protein expression [1] | maximum fold (Fold) increase of Smn protein [1] | EC (1.5-fold increase) [2] |
| --- | --- | --- | --- |
| Cc1cn2nc(-c3cc(=O)n4cc(N5CCNCC5)ccc4n3)cc2c(C)n1 [Compound 120, 2-(4,6-dimethylpyrazolo[1,5-a]pyrazin-2-yl)-7-(piperazin-1-yl)-4H-pyrido[1,2-a]pyrimidin-4-one] | **** (an EC1.5x≤0.3 μM is indicated by four stars (****)) | ***** (a fold increase >1.65 is indicated by five stars (*****)) | < 0.1 µM |
| Cc1cn2nc(-c3cc(=O)n4cc(N5C[C@@H](C)N[C@@H](C)C5)ccc4n3)cc2c(C)n1 [Compound 131, 7-[(3R,5S)-3,5-dimethylpiperazin-1-yl]-2-(4,6-dimethylpyrazolo[1,5-a]pyrazin-2-yl)-4H-pyrido[1,2-a]pyrimidin-4-one] | ** (an EC1.5× between >1 μM and ≤3 μM is indicated by two stars (**)) | *** (a fold increase between >1.35 and ≤1.5 is indicated by three stars (***)) | < 0.1 µM |
| Cc1cn2nc(-c3cc(=O)n4cc(N5CCCNCC5)ccc4n3)cc2c(C)n1 [Compound 132, 7-(1,4-diazepan-1-yl)-2-(4,6-dimethylpyrazolo[1,5-a]pyrazin-2-yl)-4H-pyrido[1,2-a]pyrimidin-4-one] | **** (an EC1.5x≤0.3 μM is indicated by four stars (****)) | ***** (a fold increase >1.65 is indicated by five stars (*****)) | < 0.1 µM |
| COc1cc(-c2cc(=O)n3cc(N4CCNCC4)ccc3n2)cc(F)c1OC [Compound 145, 2-(3-fluoro-4,5-dimethoxyphenyl)-7-(piperazin-1-yl)-4H-pyrido[1,2-a]pyrimidin-4-one] | – | * (A maximum fold increase of ≤1.2 is indicated by one star (*)) | 1 to 3 µM |
| Cc1nc2cc(-c3cc(=O)n4cc(N5CCN[C@@H](C)C5)ccc4n3)ccc2o1 [Compound 156, 2-(2-methyl-1,3-benzoxazol-5-yl)-7-[(3S)-3-methylpiperazin-1-yl]-4H-pyrido[1,2-a]pyrimidin-4-one] | – | *** (a fold increase between >1.35 and ≤1.5 is indicated by three stars (***)) | 0.3 to 1 µM |
| COc1ccc(-c2cc(=O)n3cc(N4CCNCC4)cc(C)c3n2)cc1OC [Compound 160, 2-(3,4-dimethoxyphenyl)-9-methyl-7-(piperazin-1-yl)-4H-pyrido[1,2-a]pyrimidin-4-one] | *** (an EC1.5× between >0.3 μM and ≤1 μM is indicated by three stars (***)) | *** (a fold increase between >1.35 and ≤1.5 is indicated by three stars (***)) | < 0.1 µM |
| COc1ccc(-c2cc(=O)n3cc(NC4CCNCC4)ccc3n2)cc1OC [Compound 187, 2-(3,4-dimethoxyphenyl)-7-(piperidin-4-ylamino)-4H-pyrido[1,2-a]pyrimidin-4-one] | – | ** (a fold increase between >1.2 and ≤1.35 is indicated by two stars (**)) | 1 to 3 µM |
| Cn1cc(-c2cc(=O)n3cc(N4CCNCC4)ccc3n2)cn1 [Compound 192, 2-(1-methyl-1H-pyrazol-4-yl)-7-(piperazin-1-yl)-4H-pyrido[1,2-a]pyrimidin-4-one] | ** (an EC1.5× between >1 μM and ≤3 μM is indicated by two stars (**)) | ***** (a fold increase >1.65 is indicated by five stars (*****)) | 1 to 3 µM |
| COc1ccc(-c2cc(=O)n3cc(N4CCC(N)CC4)ccc3c2)cc1F [Compound 201, 7-(4-aminopiperidin-1-yl)-2-(3-fluoro-4-methoxyphenyl)-4H-quinolizin-4-one] | *** (an EC1.5× between >0.3 μM and ≤1 μM is indicated by three stars (***)) | *** (a fold increase between >1.35 and ≤1.5 is indicated by three stars (***)) | < 0.1 µM |
| COc1ccc(-c2cc(=O)n3cc(N4CCC(N(C)C)CC4)ccc3c2)cc1F [Compound 203, 7-[4-(dimethylamino)piperidin-1-yl]-2-(3-fluoro-4-methoxyphenyl)-4H-quinolizin-4-one] | – | * (A maximum fold increase of ≤1.2 is indicated by one star (*)) | 1 to 3 µM |
